Results as given in patent US9206156B2, “Substituted indole derivatives” (GRÜNENTHAL GMBH, priority 2008, dated 2015).

What was measured:
ORL1 receptor = target: T1, ORL1 receptor (Homo sapiens, UniProt P41146); assay: ORL1 receptor binding assay with 3H-nociceptin/orphanin FQ (WGA-SPA beads); conditions: c=1 μM test substance; 0.5 nM 3H-nociceptin/orphanin FQ; membranes of recombinant CHO-ORL1 cells
T1 construct: expressed in transfected cells; host or cells: CHO (recombinant CHO-ORL1 cells), membranes
T1 sequence (P41146 whole entry): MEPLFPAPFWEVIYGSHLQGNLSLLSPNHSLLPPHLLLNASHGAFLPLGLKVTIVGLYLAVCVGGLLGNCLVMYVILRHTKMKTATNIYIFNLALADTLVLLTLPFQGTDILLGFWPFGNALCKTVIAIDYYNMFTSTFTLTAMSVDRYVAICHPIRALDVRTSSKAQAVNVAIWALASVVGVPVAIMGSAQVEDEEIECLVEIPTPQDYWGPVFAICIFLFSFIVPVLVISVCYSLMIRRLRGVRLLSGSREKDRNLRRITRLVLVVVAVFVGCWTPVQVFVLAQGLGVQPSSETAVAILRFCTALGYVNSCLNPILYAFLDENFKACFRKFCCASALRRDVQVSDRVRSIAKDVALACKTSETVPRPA
Outline: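 Affinity given as nanomolar Ki or as % inhibition at c=1 μM. Membranes of CHO cells expressing recombinant ORL1 (20 μg protein) were incubated one hour at room temperature with 0.5 nM 3H-nociceptin/orphanin FQ in Hepes 50 mM, pH 7.4, plus MgCl2 and EDTA; bound ligand detected by SPA bead scintillation counting.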

human μ-opiate receptor = target: T2, human μ-opiate receptor (Homo sapiens, UniProt P35372); assay: μ-opiate receptor binding assay with [3H] naloxone (WGA-SPA beads); conditions: 1 μmol/l test substance, 1 nmol/l [3H] naloxone, CHO-K1 cell membranes expressing human μ-opiate receptor
T2 construct: purchased NEN, Zaventem, Belgium RB-HOM; host or cells: CHO-K1 cells (membrane preparation)
T2 sequence (P35372 whole entry): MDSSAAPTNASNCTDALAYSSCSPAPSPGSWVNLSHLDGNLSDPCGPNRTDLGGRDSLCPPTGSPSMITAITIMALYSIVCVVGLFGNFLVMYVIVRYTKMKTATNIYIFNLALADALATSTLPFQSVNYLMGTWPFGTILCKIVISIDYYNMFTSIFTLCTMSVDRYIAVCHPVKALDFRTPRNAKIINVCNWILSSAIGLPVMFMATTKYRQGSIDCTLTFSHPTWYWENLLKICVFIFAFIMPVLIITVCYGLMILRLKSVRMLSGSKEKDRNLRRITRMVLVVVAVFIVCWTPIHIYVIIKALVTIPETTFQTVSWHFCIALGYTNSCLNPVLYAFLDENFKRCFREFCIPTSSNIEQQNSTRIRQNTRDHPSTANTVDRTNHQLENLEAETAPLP
Outline: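 Scintillation proximity readout: [3H]naloxone (1 nmol/l) displacement measured after 90 min, room temperature, on human μ-receptor CHO-K1 membranes in Tris-HCl/azide/BSA buffer; 25 μmol/l naloxone defined non-specific binding. Values are % specific-binding inhibition at 1 μmol/l, or Ki from IC50 (Cheng-Prusoff).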

SMILES	inhibition at 1 µM (ORL1 receptor)	inhibition at 1 µM (human μ-opiate receptor)	% Inhibition (ORL1) at 1 μM (ORL1 receptor)	% Inhibition (μ) at 1 μM (human μ-opiate receptor)	% Inhibition (μ) at 1 μM (human μ-opiate receptor; 1 µM)
CC(CC(=O)N(C)CCCN1CCC(c2cccs2)(N(C)C)CC1)c1c[nH]c2ccccc12 (centres unmarked) [Example 19, N-(3-(4-(Dimethylamino)-4-(thiophen-2-yl)piperidin-1-yl)propyl)-3-(1H-indol-3-yl)-N-methylbutanamide]	59%	89%			
CCCCC1(N(C)C)CCN(CCN(C)Cc2cccc3cc[nH]c23)CC1 [Example 157, 1-(2-(((1H-indol-7-yl)methyl)(methy)amino)ethyl)-4-butyl-N,N-dimethylpiperidin-4-amine]			30%	96%	
CCCCC1(N(C)C)CCN(CCN(C)C(=O)CC(C)c2c[nH]c3ccccc23)CC1 (centres unmarked) [Example 58, N-(2-(4-Butyl-4-(dimethylamino)piperidin-1-yl)ethyl)-3-(1H-indol-3-yl)-N-methylbutanamide]	20%	77%			
CCCCC1(N(C)C)CCN(CCN(C)C(=O)CCc2c[nH]c3ccccc23)CC1 [Example 60, N-(2-(4-Butyl-4-(dimethylamino)piperidin-1-yl)ethyl)-3-(1H-indol-3-yl)-N-methylpropanamide]	45%	81%			
COc1ccc2[nH]cc(CN(C)CCN3CCC(c4ccccc4)(N(C)C)CC3)c2c1 [Example 192, 1-(2-(((5-methoxy-1H-indol-3-yl)methyl)(methyl)amino)ethyl)-N,N-dimethyl-4-phenylpiperidin-4-amine]			76%		96%
COc1ccc2[nH]cc(CNCCN3CCC(c4cccs4)(N(C)C)CC3)c2c1 [Example 76, 1-(2-((5-Methoxy-1H-indol-3-yl)methylamino)ethyl)-N,N-dimethyl-4-(thiophen-2-yl)pipendin-4-amine]			93%	99%	
CN(C)C1(c2ccccc2)CCN(C(=O)C2CCCN(Cc3cccc4[nH]ccc34)C2)CC1 (centres unmarked) [Example 161, (1-((1H-indol-4-yl)methyl)piperidin-3-yl)(4-(dimethylamino)-4-phenylpiperidin-1-yl)methanone]	15%	66%			
CN(CCN1CCC(c2ccccc2)(N(C)C)CC1)Cc1c(-c2ccccc2)[nH]c2ccccc12 [Example 71, N,N-Dimethyl-1-(2-(methyl((2-phenyl-1H-indol-3-yl)methyl)amino)ethyl)-4-phenylpipendin-4-amine]	83%	96%			
COc1ccc2[nH]c(C(=O)N(C)CCCN3CCC(c4cccs4)(N(C)C)CC3)cc2c1 [Example 22, N-(3-(4-(Dimethylamino)-4-(thiophen-2-yl)piperidin-1-yl)propyl)-5-methoxy-N-methyl-1H-indole-2-carboxamide]	25%	70%			
CN(C)C1(c2ccccc2)CCN(C(=O)C2CCCN(C(=O)CCc3cn(C)c4ccccc34)C2)CC1 (centres unmarked) [Example 133, 1-(3-(4-(dimethylamino)-4-phenylpiperidine-1-carbonyl)piperidin-1-yl)-3-(1-methyl-1H-indol-3-yl)propan-1-one]	32%	71%			
CN(Cc1ccc2[nH]ccc2c1)C(C(=O)N1CCC(c2cccs2)(N(C)C)CC1)c1ccccc1 (centres unmarked) [Example 147, 2-(((1H-indol-5-yl)methyl)(methyl)amino)-1-(4-(dimethylamino)-4-(thiophen-2-yl)piperidin-1-yl)-2-phenylethanone]	27%	47%			
CN(C)C1(c2ccccc2)CCN(C(=O)CCNCc2c[nH]c3ccccc23)CC1 [Example 139, 3-((1H-indol-3-yl)methylamino)-1-(4-(dimethylamino)-4-phenylpiperidin-1-yl)propan-1-one]	74%	90%			
CN(C)C1(c2ccccc2)CCN(C(=O)C2CCCN(Cc3c(-c4ccc(F)cc4)[nH]c4ccccc34)C2)CC1 (centres unmarked) [Example 177, (4-(dimethylamino)-4-phenylpiperidin-1-yl)(1-((2-(4-fluorophenyl)-1H-indol-3-yl)methyl)piperidin-3-yl)methanone]	51%	94%			
